Source: patent US7205413B2, “Solvates and polymorphs of ritonavir and methods of making and using the same” (TransForm Pharmaceuticals, Inc., priority 2002, dated 2007)
“Also recorded” adds a separate entry of the source. Where two headings read alike, the source gives them in different places. One block for each compound: values may come before it.

How the values were obtained:
[1] = Thermal Gravimetric Analysis (TGA) weight loss; format: physicochemical; settings: heated 10° C./min under dry nitrogen
Source text: TGA data were collected for each of the forms using a Q500 Thermogravimetric Analyzer (TA Instruments, 109 Lukens Drive, New Castle, Del. 19720), which uses as its control software Advantage for QW-Series, version 1.0.0.78, Thermal Advantage Release 2.0, © 2001 (TA instruments—Waters LLC). An aliquot of the sample was transferred into a platinum sample pan (Pan part # 952019.906; TA Instruments, 109 Lukens Drive, New Castle, Del. 19720). The pan was placed on the loading platform and was then automatically loaded in to the apparatus using the control software. Thermograms were typically obtained by individually heating the sample at 10° C./min from 25° C. to 300° C. under flowing dry nitrogen (compressed nitrogen, grade 4.8, BOC Gases, 575 Mountain Avenue, Murray Hill, N.J. 07974-2082), with a sample purge flow rate of 60 ml/min and a balance purge flow rate of 40 ml/min. Thermal transitions (weight changes) were viewed and analyzed using the analysis software Universal Analysis 2000 for Windows 95/95/2000/NT, version 3.1E; Build 3.1.0.40, © 1991–2001 (TA instruments—Waters LLC), provided with the instrument.
Using the DSC and TGA data obtained for Ritonavir Forms III, IV, and V, and published data for Forms I and II, the different thermal characteristics of each of the forms of Ritonavir were determined. These characteristics are provided below in Table 1: […]

[2] = Conversion of solid form on contact with aqueous media; format: physicochemical
Source text: Ritonavir(IV) can be prepared from Ritonavir(III). In a particular method, Ritonavir(III) is contacted with an aqueous medium for an amount of time sufficient to effect the change. For example, Ritonavir(III) placed on a vacuum filter can be washed with deionized water, thereby providing Ritonavir(IV).

[3] = Conversion of solid form when left in the crystallization mixture; format: physicochemical
Method: In particular: (A) is a representative X-ray diffraction pattern of Ritonavir(I); (B) is an X-ray diffraction pattern of a sample of Ritonavir(V) after being left in the crystallization mixture for approximately 16 hours, with arrows indicating peaks that signify the presence of Ritonavir(I); and (C) is a representative X-ray diffraction pattern of Ritonavir(V). […] In particular: (A) provides a DSC trace of Ritonavir(I); (B) provides a DSC trace of a sample of Ritonavir(V) after being left in the crystallization mixture for approximately 16 hours, wherein two peaks are observed corresponding to Forms I and V; and (C) is a representative DSC trace of Ritonavir(V). Ritonavir(V) is readily prepared from solvent systems (e.g., binary solvent systems) comprised of an acetate and acetonitrile. In particular, it was discovered that after Ritonavir is dissolved in such a solvent system at an elevated temperature (e.g., about 70° C.), the slow cooling of the resulting mixtures (e.g., at a rate of about 5° C./minute until a temperature of about 5° C. is reached) typically yields crystals of Ritonavir(V), which can be isolated by filtration and optionally dried by air. Specific solvent systems comprise from about 25 to about 50 volume percent acetonitrile.

[4] = data for Forms I and II obtained from Chemburkar; cited from earlier work
[5] = crystalline form, oral; cited from earlier work

TGA % weight loss (up to 130° C.) ([1]; listed as III): 30—60%
SMILES: CC(C)c1nc(CN(C)C(=O)N[C@H](C(=O)N[C@@H](Cc2ccccc2)C[C@H](O)[C@H](Cc2ccccc2)NC(=O)OCc2cncs2)C(C)C)cs1 (relative stereo) [Form III, 10-hydroxy-2-methyl-5-(1-methylethyl)-1-[2-(1-methylethyl)-4-thiazolyl]-3,6-dioxo-8,11-bis(phenylmethyl)-2,4,7,12-tetraazatridecan-13-oic acid, 5-thiazolylmethyl ester, [5S-(5R*,8R*,10R*,11R*)]]
form conversion while washed or incubated in aqueous media (DSC trace, FIG. 17) ([2]; washed or incubated in aqueous media): conversion of Ritonavir Form III to Form IV, and subsequently to Form I

TGA % weight loss (up to 130° C.) ([1]; listed as IV): 4—9%
form conversion on exposure to an aqueous environment ([2]; aqueous environment, extended time, about 15 to about 60 minutes): converts to Ritonavir Form I
SMILES: CC(C)c1nc(CN(C)C(=O)N[C@H](C(=O)N[C@@H](Cc2ccccc2)C[C@H](O)[C@H](Cc2ccccc2)NC(=O)OCc2cncs2)C(C)C)cs1 (relative stereo) [Form IV, 10-hydroxy-2-methyl-5-(1-methylethyl)-1-[2-(1-methylethyl)-4-thiazolyl]-3,6-dioxo-8,11-bis(phenylmethyl)-2,4,7,12-tetraazatridecan-13-oic acid, 5-thiazolylmethyl ester, [5S-(5R*,8R*,10R*,11R*)]]
form conversion on prolonged exposure to an aqueous environment ([2]; prolonged exposure to aqueous environment): converts the compound to Ritonavir Form II

TGA % weight loss (up to 130° C.) ([1]; listed as V): <0.3%
form conversion when left in crystallization mixture (X-ray diffraction, DSC) ([3]; approximately 16 hours at nucleation temperature of 5° C.): formed Ritonavir(I)
SMILES: CC(C)c1nc(CN(C)C(=O)N[C@H](C(=O)N[C@@H](Cc2ccccc2)C[C@H](O)[C@H](Cc2ccccc2)NC(=O)OCc2cncs2)C(C)C)cs1 (relative stereo) [Form V, 10-hydroxy-2-methyl-5-(1-methylethyl)-1-[2-(1-methylethyl)-4-thiazolyl]-3,6-dioxo-8,11-bis(phenylmethyl)-2,4,7,12-tetraazatridecan-13-oic acid, 5-thiazolylmethyl ester, [5S-(5R*,8R*,10R*,11R*)]]
form conversion on prolonged time in crystallization mixture ([3]; prolonged period of time (hours to days), listed as Ritonavir(V)): form a mixture of Forms V and I; also recorded: provides Ritonavir Form I

SMILES: CC(C)c1nc(CN(C)C(=O)N[C@H](C(=O)N[C@@H](Cc2ccccc2)C[C@H](O)[C@H](Cc2ccccc2)NC(=O)OCc2cncs2)C(C)C)cs1 (single isomer, unassigned) [Form I, 10-hydroxy-2-methyl-5-(1-methylethyl)-1-[2-(1-methylethyl)-4-thiazolyl]-3,6-dioxo-8,11-bis(phenylmethyl)-2,4,7,12-tetraazatridecan-13-oic acid, 5-thiazolylmethyl ester, [5S-(5R*,8R*,10R*,11R*)]]
TGA % weight loss (up to 130° C.) [4]: <0.3%
bioavailability [5]: not bioavailable; also recorded: poor bioavailability

SMILES: CC(C)c1nc(CN(C)C(=O)N[C@H](C(=O)N[C@@H](Cc2ccccc2)C[C@H](O)[C@H](Cc2ccccc2)NC(=O)OCc2cncs2)C(C)C)cs1 (single isomer, unassigned) [Form II, 10-hydroxy-2-methyl-5-(1-methylethyl)-1-[2-(1-methylethyl)-4-thiazolyl]-3,6-dioxo-8,11-bis(phenylmethyl)-2,4,7,12-tetraazatridecan-13-oic acid, 5-thiazolylmethyl ester, [5S-(5R*,8R*,10R*,11R*)]]
TGA % weight loss (up to 130° C.) [4]: <0.3%
bioavailability [5]: poor bioavailability
